Residues, ends and D or L forms follow the SMILES beside them.

The source of these data is US5461035A, “Short peptides with insulin activity” (priority 1990, dated 1995).

The test system of assay [1] is Rat lipocytes. The assay is described as follows: Glucose uptake, D-[U-14C]-glucose, rat lipocytes. The format is cell-based. Particulars: D-glucose 22 μM. The procedure:
(§1) The biological activity of the peptides according to the invention, of the formula I and II, is determined using lipocytes and pieces of diaphragm obtained by dissection from rats. The term tripeptide means Tyr Cys Asn-OH and hexapeptide means acetyl-Leu Glu Asn Tyr Cys Asn-OH. The term "baseline" means the activity without stimulation, insulin means human insulin and dpm means radioactive disintegrations per minute. The term peptid denotes peptides having insulin activity according to the present invention. Rat lipocytes were prepared as follows:
Epididymal adipose tissue (Wistar rat, 160-180 g, no feed restriction) is digested with collagenase, and the resulting single lipocytes are washed several times by flotation.
(§2) The two following tests measure the glucose uptake which can be stimulated by insulin and which requires the functional insulin signal-transmission cascade and glucose transport, irrespective of whether glucose is metabolized by oxidation (glycolysis, pentose phosphate pathway) or not by oxidation. The conversion into lipids, glycogen or membrane-impermeable intermediates (glucose 6-phosphate), but not the production of lactate, is followed.
a) Rat lipocytes are incubated in the presence or absence of insulin or peptide with D-[U-^14 C]-glucose (final concentration of D-glucose 22 μM). The cells are separated from the medium by centrifugation through a silicone oil layer and are reisolated, and the cell-associated radioactivity is determined.

The subject of assay [2] is Pieces of diaphragm. The assay is described as follows: Glucose uptake, D-[U-14C]-glucose, pieces of diaphragm. The conditions noted are these: D-glucose 75 μM. The class given is cell-based, rat. The protocol:
as §1
(§3) Preparation of pieces of diaphragm from rats: small pieces of tissue (5 mm diameter) are punched out of hemidiaphragms (Wistar rat, 60-70 g, no feed restriction) washed several times.
as §2
b) Pieces of diaphragm are incubated in the presence or absence of insulin or peptide with D-[U-^14 C]-glucose (final concentration of D-glucose 75 μM). The medium is aspirated out. The pieces of tissue are washed several times and subsequently solubilized by alkali treatment for the determination of radioactivity.

In assay [3] the test system is Rat lipocytes. The assay is described as follows: Glucose transport, 2-deoxy-D-[1-3H]-glucose, rat lipocytes. The format is cell-based. The conditions noted are these: glucose 0.2 mM. The procedure: Epididymal adipose tissue (Wistar rat, 160-180 g, no feed restriction) is digested with collagenase, and the resulting single lipocytes are washed several times by flotation. Lipocytes and pieces of diaphragm are prepared as in Example 5. The following tests measure exclusively the specific glucose transport which can be stimulated by insulin (facilitated diffusion) through the plasma membrane by means of glucose carriers, including the insulin signal-transmission cascade. Any effect of glucose metabolism on glucose transport is ruled out by using the non-metabolizable glucose analog. a) Rat lipocytes are incubated in the presence or absence of insulin or peptide with 2-deoxy-D-[1-^3 H]-glucose (final concentration of D-glucose 0.2 mM) and L-[1-^14 C]-glucose (not transportable). To determine the radioactivity ([^3 H] and [^14 C]) the cells are separated from the medium by centrifugation through an oil layer. The specific stereoselective glucose transport is calculated as the difference between the total cell-bound radioactivity ([^3 H]-glucose) and the associated radioactivity due to diffusion and non-specific effects ([C]-glucose).

For assay [4], the system named is Pieces of diaphragm. The assay is described as follows: Glucose transport, 2-deoxy-D-[1-3H]-glucose, pieces of diaphragm. The class given is cell-based, rat. The conditions noted are these: glucose 0.1 mM. The procedure:
as §3
Lipocytes and pieces of diaphragm are prepared as in Example 5. The following tests measure exclusively the specific glucose transport which can be stimulated by insulin (facilitated diffusion) through the plasma membrane by means of glucose carriers, including the insulin signal-transmission cascade. Any effect of glucose metabolism on glucose transport is ruled out by using the non-metabolizable glucose analog.
b) Pieces of diaphragm are incubated in the presence or absence of insulin or peptide with 2-deoxy-D-[1-^3 H]-glucose (final concentration of D-glucose 0.1 mM) and L-[1-^14 C]-glucose. The pieces of tissue are separated from the medium by rapid filtration through glass fiber filters and are thoroughly washed. The radioactivity is measured in an alkaline extract.

The test system of assay [5] is Rat lipocytes. As to the kind of experiment: Esterification in vitro of glycerol 3-phosphate in saponin-permeabilized lipocytes. The class given is cell-based. The protocol: This test measures the esterification of glycerol 3-phosphate which can be stimulated by insulin in lipid products (triglycerides, phospholipids). The enzymes of lipid synthesis (for example acyl-CoA: L-glycerol 3-phosphate acyltransferase) are involved in this, including a functional insulin signal-transmission cascade. […] The incubation is continued after addition of L-[U-^14 C]-glycerol 3-phosphate. Toluene-soluble scintillation cocktail is added and the lipid is separated from the aqueous phase by centrifugation. The toluene phase containing the lipid is removed and its radioactivity is determined.

The test system of assay [6] is Rat lipocytes. The assay is described as follows: Lipogenesis in trypsin-treated rat lipocytes (insulin receptor inactivated). The format is cell-based. The protocol: Rat lipocytes from Example 5 are treated with low concentrations of trypsin to inactivate the insulin receptor by proteolysis. After addition of protease inhibitors, the cells are washed twice by flotation, and the incubation is continued at 37° C. for 15 min. These cells are then used for the test of stimulation of lipogenesis by the peptides. […] This means that this test measures stimulation of lipogenesis owing to interventions in the insulin signal-transmission cascade after receptor binding of insulin.

For assay [7], the system named is Balb-C mice. As to the kind of experiment: Blood glucose profile in mice. The class given is in vivo. Particulars: intravenous. The protocol:
Female Charles River Wiga Balb-C mice weighing 17 to 21 g (about 30 days old) receive a standard diet. The mice receive no food for 16 hours before the start of the experiment. 5 animals in each experimental group receive intravenous administration of an aqueous solution (pH 6) of the compound from Example 4 (octapeptide). Volume administered 0.3 ml/animal.
The average for each experimental group is indicated in each case.

Take `NC(=O)C[C@H](NC(=O)[C@H](CS)NC(=O)[C@@H](N)Cc1ccc(O)cc1)C(=O)O` [Tripeptide, H-Tyr-Cys-Asn-OH] (H-Tyr-Cys-Asn-OH): the Glucose uptake in assay [1] (peptide 0.1 Mm) is reported as 1838 dpm; in assay [1] (peptide 0.5 Mm), 2947 dpm; in assay [1] (peptide 1 Mm), 6533 dpm; in assay [2] (peptide 0.1 Mm), 7591 dpm; in assay [2] (peptide 0.5 Mm), 8540 dpm; in assay [2] (peptide 1 Mm), 11588 dpm. Besides, the Glucose transport is 2289 dpm in assay [3] (peptide 0.1 Mm); 3055 dpm in assay [3] (peptide 0.5 Mm); 5781 dpm in assay [3] (peptide 1 Mm); 8836 dpm in assay [4] (peptide 0.1 Mm); 9822 dpm in assay [4] (peptide 0.5 Mm); 11252 dpm in assay [4] (peptide 1 Mm). In addition, the Esterification with lipocytes in assay [5] (peptide 0.5 mM) stood at 4422 dpm; in assay [5] (peptide 0.1 Mm), 3710 dpm; in assay [5] (peptide 1 Mm), 5398 dpm. Besides, the Lipogenesis in assay [6] (peptide 0.5 mM) was 4145 dpm; in assay [6] (peptide 0.1 Mm) it was 3250 dpm; in assay [6] (peptide 1 Mm) it was 5072 dpm.
For the molecule “Ac-LENYCN-OH [Hexapeptide, Acetyl-Leu-Glu-Asn-Tyr-Cys-Asn-OH]”, the Glucose uptake in assay [1] (peptide 0.1 Mm) worked out at 1488 dpm; in assay [1] (peptide 0.5 Mm), 1917 dpm; in assay [1] (peptide 1 Mm), 4218 dpm; in assay [2] (peptide 0.1 Mm), 7429 dpm; in assay [2] (peptide 0.5 Mm), 7752 dpm; in assay [2] (peptide 1 Mm), 8597 dpm. The Glucose transport in assay [3] (peptide 0.1 Mm) turned out to be 2218 dpm; in assay [3] (peptide 0.5 Mm), 2842 dpm; in assay [3] (peptide 1 Mm) it was 3922 dpm; in assay [4] (peptide 0.1 Mm) it was 8450 dpm; in assay [4] (peptide 0.5 Mm), 8928 dpm; in assay [4] (peptide 1 Mm) it was 9676 dpm.
Consider “H-Tyr(Bu^t)-Gln-Leu-Glu(OBu^t)-Asn-Tyr(Bu^t)-Cys(Trt-Asn-Obu^t.HBr [Octapeptide]”, for which the “Blood glucose level, percentage difference to control group” value was -2% in assay [7] (500 μg/animal, 20 minutes); -5% in assay [7] (500 μg/animal, 40 minutes); -13% in assay [7] (500 μg/animal, 60 minutes); -21% in assay [7] (500 μg/animal, 75 minutes); -21% in assay [7] (500 μg/animal, 90 minutes); -31% in assay [7] (1000 μg/animal, 20 minutes). Besides, the “Blood glucose level, percentage difference to control group” value in assay [7] (1000 μg/animal, 40 minutes) is on record as -19%; in assay [7] (1000 μg/animal, 60 minutes), -23%; in assay [7] (1000 μg/animal, 75 minutes), -24%; in assay [7] (1000 μg/animal, 90 minutes), -19%.
With Insulin: insulin means human insulin, the Glucose uptake in assay [1] (insulin 0.5 ng) is given as 4379 dpm; in assay [1] (insulin 5 ng), 26312 dpm; in assay [2] (insulin 0.5 ng) it was 10055 dpm; in assay [2] (insulin 5 ng), 20841 dpm. Besides, the Glucose transport was 4851 dpm in assay [3] (insulin 0.5 ng), 20342 dpm in assay [3] (insulin 5 ng), 10828 dpm in assay [4] (insulin 0.5 ng) and 17750 dpm in assay [4] (insulin 5 ng). The molecule also yielded an Esterification with lipocytes in assay [5] (insulin 5 ng) of 3640 dpm. This molecule gave a Lipogenesis in assay [6] (insulin 5 ng) of 3087 dpm.
